Laboratory results reported in patent publication US20260034130A1 (priority 2022, published 2026).
Read-outs that look alike come from different tables or passages of the source.

Experiments:
[1] = system: patients with acute ischemic stroke or high-risk TIA
Source text: As used herein, the “Bleeding Academic Research Consortium (BARC) Type 3 criteria” are: a. Overt bleeding plus hemoglobin drop of 3 to <5 g/dL (provided hemoglobin drop is related to bleed); transfusion with overt bleeding; b. Overt bleeding plus hemoglobin drop ≥5 g/dL (provided hemoglobin drop is related to bleed); cardiac tamponade; bleeding requiring surgical intervention for control; bleeding requiring IV vasoactive agents; or c. Intracranial hemorrhage confirmed by autopsy, imaging, or lumbar puncture; intraocular bleed compromising vision. See, e.g., Roxana Mehran, et al. Standardized Bleeding Definitions for Cardiovascular Clinical Trials, Circulation.
As used herein, the “Bleeding Academic Research Consortium (BARC) Type 5 criteria” are: a. Probable fatal bleeding; or b. Definite fatal bleeding (overt or autopsy or imaging confirmation). See, e.g., Roxana Mehran, et al. Standardized Bleeding Definitions for Cardiovascular Clinical Trials, Circulation.
As used herein, the “Bleeding Academic Research Consortium (BARC) Type 2 criteria” are: any clinically overt sign of hemorrhage that “is actionable” and requires diagnostic studies, hospitalization, or treatment by a health care professional. See, e.g., Roxana Mehran, et al. Standardized Bleeding Definitions for Cardiovascular Clinical Trials, Circulation.
The secondary endpoint of major bleeding was determined by the occurrence of types 3 and 5 bleeding, according to the Bleeding Academic Research Consortium (BARC) classification system. Roxana Mehran, et al. Standardized Bleeding Definitions for Cardiovascular Clinical Trials, Circulation. […] Bleeding was additionally evaluated utilizing International Society on Thrombosis and Haemostasis (ISTH) and PLATelet inhibition and patient Outcomes (PLATO) criteria.
The population for safety analysis includes all participants who received at least one dose of study medication. This is the primary population used in safety analysis and is analyzed according to the treatment assigned at randomization.
Analysis of all safety data will be performed on participants treated with ≥1 dose of double-blind drug. The proportion of participants with major bleeding events (BARC types 3 and 5), as well as BARC-, ISTH-, and PLATO-defined criteria, will be summarized by treatment group. Additional summaries will include characteristics of cerebral microbleeds, hemorrhagic transformation of ischemic stroke, and asymptomatic intracranial bleeding. Adverse event and laboratory data, as well as PK and PD data, will be summarized.

[2] = system: patients with acute ischemic stroke or high-risk TIA; experiment: AXIOMATIC-SSP composite of new ischemic stroke, MI and all-cause death; format: in vivo, human; settings: up to Day 90
Source text: Event rates of the composite of new ischemic non-fatal stroke, non-fatal myocardial infarction, or all-cause death.

[3] = system: patients with acute ischemic stroke or high-risk TIA; experiment: AXIOMATIC-SSP mRS at the time of first recurrent stroke; format: in vivo, human; settings: for mRS Change from Baseline Mean / mRS Change from Baseline Median / mRS Value Mean / mRS Value Median: first recurrent stroke
Source text: (§1) National Institutes of Health Stroke Scale (NIHSS), Modified Rankin Scale (mRS), Montreal Cognitive Assessment (MoCA), and Digit Symbol Substitution Test (subtest of WAIS-IV) were collected at baseline (at randomization for NIHSS), on Days 21 and 90, and at the time of a new stroke event. MoCA and DSST (subset of WAIS-IV) were read by a third-party central laboratory blinded to treatment.
(§2) Descriptive statistics and corresponding change from baseline (where applicable) assessed by the National Institutes of Health Stroke Score (NIHSS), modified Rankin Scale (mRS), Montreal Cognitive Assessment (MoCA), and Digit Symbol Substitution Test (subtest of WAIS-IV) were summarized by treatment group.

[4] = system: patients with acute ischemic stroke or high-risk TIA; experiment: AXIOMATIC-SSP NIHSS at the time of first recurrent stroke; format: in vivo, human; settings: for NIHSS Change from Baseline Mean / NIHSS Change from Baseline Median / NIHSS Value Mean / NIHSS Value Median: first recurrent stroke
Source text: as §1, §2

[5] = system: patients undergoing TKR (total knee replacement); settings: 25 mg twice daily; cited from earlier work

C[C@@H]1CCC[C@H](n2cnc(-c3cc(Cl)ccc3-n3cc(Cl)nn3)cc2=O)c2cc(ccn2)-c2c(cnn2C(F)F)NC1=O [milvexian, (5R,9S)-9-(4-(5-chloro-2-(4-chloro-1H-1,2,3-triazol-1-yl)phenyl)-6-oxopyrimidin-1(6H)-yl)-21-(difluoromethyl)-5-methyl-21H-3-aza-1(4,2)-pyridina-2(5,4)-pyrazolacyclonaphan-4-one]
BARC Type 5 (fatal) bleeding, subjects n ([1]; 25 mg BID, N = 313): 0
BARC Type 5 bleeding, Incidence Rate (n/N %) ([1]; 25 mg BID, N = 313): (0) %
BARC Type 5 (fatal) bleeding, subjects n ([1]; 25 mg QD, N = 325): 0
BARC Type 5 bleeding, Incidence Rate (n/N %) ([1]; 25 mg QD, N = 325): (0) %
BARC Type 5 (fatal) bleeding, subjects n ([1]; 50 mg BID, N = 325): 0
BARC Type 5 bleeding, Incidence Rate (n/N %) ([1]; 50 mg BID, N = 325): (0) %
BARC Type 5 (fatal) bleeding, subjects n ([1]; 100 mg BID, N = 306): 0
BARC Type 5 bleeding, Incidence Rate (n/N %) ([1]; 100 mg BID, N = 306): (0) %
BARC Type 5 (fatal) bleeding, subjects n ([1]; 200 mg BID, N = 344): 0
BARC Type 5 bleeding, Incidence Rate (n/N %) ([1]; 200 mg BID, N = 344): (0) %
fatal bleeding ([1]; all treatment arms): No fatal bleeding
incidence rate (n/N %) of bleeding endpoint (BARC Type 3 and 5) ([1]; human, in vivo, 90 days): 0.6-1.6%
All Cause Death (%) ([2]; 25 mg BID, N = 318): (0.9) %
All Cause Death, subjects n ([2]; 25 mg BID, N = 318): 3
Myocardial Infarction (%) ([2]; 25 mg BID, N = 318): (0.6) %
Myocardial Infarction, subjects n ([2]; 25 mg BID, N = 318): 2
New Ischemic Stroke, MI And All Cause Death: Subjects With Event (%) ([2]; 25 mg BID, N = 318): (4.7) %
All Cause Death (%) ([2]; 25 mg QD, N = 328): (0.9) %
All Cause Death, subjects n ([2]; 25 mg QD, N = 328): 3
Myocardial Infarction (%) ([2]; 25 mg QD, N = 328): (0.3) %
Myocardial Infarction, subjects n ([2]; 25 mg QD, N = 328): 1
New Ischemic Stroke, MI And All Cause Death: Subjects With Event (%) ([2]; 25 mg QD, N = 328): (5.2) %
All Cause Death (%) ([2]; 50 mg BID, N = 328): (0.6) %
All Cause Death, subjects n ([2]; 50 mg BID, N = 328): 2
Myocardial Infarction (%) ([2]; 50 mg BID, N = 328): (0.3) %
Myocardial Infarction, subjects n ([2]; 50 mg BID, N = 328): 1
New Ischemic Stroke, MI And All Cause Death: Subjects With Event (%) ([2]; 50 mg BID, N = 328): (4.9) %
All Cause Death (%) ([2]; 100 mg BID, N = 310): (1.6) %
All Cause Death, subjects n ([2]; 100 mg BID, N = 310): 5
Myocardial Infarction (%) ([2]; 100 mg BID, N = 310): (0.6) %
Myocardial Infarction, subjects n ([2]; 100 mg BID, N = 310): 2
New Ischemic Stroke, MI And All Cause Death: Subjects With Event (%) ([2]; 100 mg BID, N = 310): (5.2) %
All Cause Death, subjects n ([2]; 200 mg BID, N = 351): 4
Myocardial Infarction, subjects n ([2]; 200 mg BID, N = 351): 3
mRS Change from Baseline Mean ([3]; 25 BID, N 10): 2.1
mRS Change from Baseline Median ([3]; 25 BID, N 10): 2.0
mRS Value Mean ([3]; 25 BID, N 10): 2.6
mRS Value Median ([3]; 25 BID, N 10): 3.0
mRS Change from Baseline Mean ([3]; 25 QD, N 13): 1.9
mRS Change from Baseline Median ([3]; 25 QD, N 13): 2.0
mRS Value Mean ([3]; 25 QD, N 13): 2.7
mRS Value Median ([3]; 25 QD, N 13): 3.0
mRS Change from Baseline Mean ([3]; 50 BID, N 11): 1.7
mRS Change from Baseline Median ([3]; 50 BID, N 11): 1.0
mRS Value Mean ([3]; 50 BID, N 11): 2.3
mRS Value Median ([3]; 50 BID, N 11): 2.0
mRS Change from Baseline Mean ([3]; 100 BID, N 8): 2.4
mRS Change from Baseline Median ([3]; 100 BID, N 8): 2.5
mRS Value Mean ([3]; 100 BID, N 8): 2.9
mRS Value Median ([3]; 100 BID, N 8): 3.0
mRS Change from Baseline Mean ([3]; 200 BID, N 19): 1.4
mRS Change from Baseline Median ([3]; 200 BID, N 19): 1.0
mRS Value Mean ([3]; 200 BID, N 19): 1.8
mRS Value Median ([3]; 200 BID, N 19): 1.0
mRS score at the time of a new stroke event compared with placebo ([3]; milvexian arms): numerically lower
NIHSS Change from Baseline Mean ([4]; 25 BID, N 11): 2.6
NIHSS Change from Baseline Median ([4]; 25 BID, N 11): 3.0
NIHSS Value Mean ([4]; 25 BID, N 11): 5.4
NIHSS Value Median ([4]; 25 BID, N 11): 5.0
NIHSS Change from Baseline Mean ([4]; 25 QD, N 14): 2.6
NIHSS Change from Baseline Median ([4]; 25 QD, N 14): 2.0
NIHSS Value Mean ([4]; 25 QD, N 14): 4.6
NIHSS Value Median ([4]; 25 QD, N 14): 3.5
NIHSS Change from Baseline Mean ([4]; 50 BID, N 11): 1.6
NIHSS Change from Baseline Median ([4]; 50 BID, N 11): 1.0
NIHSS Value Mean ([4]; 50 BID, N 11): 4.6
NIHSS Value Median ([4]; 50 BID, N 11): 3.0
NIHSS Change from Baseline Mean ([4]; 100 BID, N 10): 5.2
NIHSS Change from Baseline Median ([4]; 100 BID, N 10): 2.5
NIHSS Value Mean ([4]; 100 BID, N 10): 7.1
NIHSS Value Median ([4]; 100 BID, N 10): 6.5
NIHSS Change from Baseline Mean ([4]; 200 BID, N 20): 2.8
NIHSS Change from Baseline Median ([4]; 200 BID, N 20): 1.0
NIHSS Value Mean ([4]; 200 BID, N 20): 4.4
NIHSS Value Median ([4]; 200 BID, N 20): 2.5
NIHSS score at the time of a new stroke event compared with placebo ([4]; milvexian arms): numerically lower
efficacy versus enoxaparin in AXIOMATIC-TKR [5]: comparable efficacy to enoxaparin
